Data published in US7977332B2, “Insecticidal N-(heteroarylalkyl)alkanediamine derivatives” (FMC Corporation, priority 2003, dated 2011).

These compounds were tested on tobacco budworm (Heliothis virescens [Fabricius]) (assay: surface-treated diet test against tobacco budworm). Settings: 0.25 millimolar on the surface of the diet; second instar larvae; five-day exposure.
Format: in vivo
Experimental: Candidate insecticides were evaluated for activity against the tobacco budworm (Heliothis virescens [Fabricius]) in a surface-treated diet test.
In this test one mL of molten (65-70° C.) wheat germ-based artificial diet was pipetted into each well of a four by six (24 well) multi-well plate (ID# 430345-15.5 mm dia.×17.6 mm deep; Corning Costar Corp., One Alewife Center, Cambridge, Mass. 02140). The diet was allowed to cool to ambient temperature before treatment with candidate insecticide.
For a determination of insecticidal activity, solutions of the candidate insecticides were prepared for testing using a Packard 204DT Multiprobe® Robotic System (Packard Instrument Company, 800 Research Parkway, Meriden, Conn. 06450), in which the robot first diluted a standard 50 millimolar DMSO solution of candidate insecticide with a 1:1 water/acetone solution (V/V) in a ratio of 1:7 stock solution to water/acetone. The robot subsequently pipetted 40 microliters of the so-prepared solution onto the surface of the diet in each of three wells in the 24 multi-well plate. The process was repeated with solutions of seven other candidate insecticides. Once treated, the contents of the multi-well plate were allowed to dry, leaving 0.25 millimoles of candidate insecticide on the surface of the diet, or a concentration of 0.25 millimolar. Appropriate untreated controls containing only DMSO on the diet surface were also included in this test.
For evaluations of the insecticidal activity of a candidate insecticide at varying rates of application, the test was established as described above using sub-multiples of the standard 50 millimolar DMSO solution of candidate insecticide. For example, the standard 50 millimolar solution was diluted by the robot with DMSO to give 5, 0.5, 0.05, 0.005, 0.0005 millimolar, or more dilute solutions of the candidate insecticide. In these evaluations there were six replicates of each rate of application placed on the surface of the diet in the 24 multi-well plate, for a total of four rates of application of candidate insecticide in each plate.
In each well of the test plate was placed one second instar tobacco budworm larvea, each weighing approximately five milligrams. After the larvae were placed in each well, the plate was sealed with clear polyfilm adhesive tape. The tape over each well was perforated to ensure an adequate air supply. The plates were then held in a growth chamber at 25° C. and 60% relative humidity for five days (light 14 hours/day).
After the five-day exposure period insecticidal activity for each rate of application of candidate insecticide was assessed as percent inhibition of insect weight relative to the weight of insects from untreated controls, and percent mortality when compared to the total number of insects infested.
The test compounds of formula I are identified by numbers that correspond to those in Table 1.

Row | SMILES | Percent Mortality [%]
1 | C=CCN(CCNC(=C[N+](=O)[O-])SCc1ccc(C(F)(F)F)cc1)Cc1ccc(Cl)nc1 [Compound 328] | 83

Same assay, conditions: 0.25 millimolar on the surface of the diet; second instar larvae; five-day exposure; insect weight relative to untreated controls

Row | SMILES | Percent Growth Inhibition [%]
2 | O=[N+]([O-])C=C(NCCN(Cc1ccc(Cl)nc1)Cc1ccc(Cl)nc1)SCc1cccc(Cl)c1 [Compound 315] | 98
3 | O=[N+]([O-])C=C(NCCN(Cc1ccc(Cl)nc1)Cc1ccc(Cl)nc1)SCc1c(F)c(F)c(F)c(F)c1F [Compound 318] | 100
4 | Cc1ccccc1CSC(=C[N+](=O)[O-])NCCN(Cc1ccc(Cl)nc1)Cc1ccc(Cl)nc1 [Compound 319] | 10
5 | Cc1cccc(CSC(=C[N+](=O)[O-])NCCN(Cc2ccc(Cl)nc2)Cc2ccc(Cl)nc2)c1 [Compound 320] | 96
6 | Cc1ccc(CSC(=C[N+](=O)[O-])NCCN(Cc2ccc(Cl)nc2)Cc2ccc(Cl)nc2)cc1 [Compound 321] | 100
7 | O=[N+]([O-])C=C(NCCN(Cc1ccc(Cl)nc1)Cc1ccc(Cl)nc1)SCc1ccccc1C(F)(F)F [Compound 322] | 100
8 | O=[N+]([O-])C=C(NCCN(Cc1ccc(Cl)nc1)Cc1ccc(Cl)nc1)SCc1cccc(C(F)(F)F)c1 [Compound 323] | 100
9 | O=[N+]([O-])C=C(NCCN(Cc1ccc(Cl)nc1)Cc1ccc(Cl)nc1)SCc1ccc(C(F)(F)F)cc1 [Compound 324] | 100
10 | COc1ccccc1CSC(=C[N+](=O)[O-])NCCN(Cc1ccc(Cl)nc1)Cc1ccc(Cl)nc1 [Compound 325] | 100
11 | COc1cccc(CSC(=C[N+](=O)[O-])NCCN(Cc2ccc(Cl)nc2)Cc2ccc(Cl)nc2)c1 [Compound 326] | 100
12 | COc1ccc(CSC(=C[N+](=O)[O-])NCCN(Cc2ccc(Cl)nc2)Cc2ccc(Cl)nc2)cc1 [Compound 327] | 100
13 | C=CCN(CCNC(=C[N+](=O)[O-])SCc1ccc(C(F)(F)F)cc1)Cc1ccc(Cl)nc1 [Compound 328] | 98
14 | C#CCN(CCN1COCNC1=N[N+](=O)[O-])Cc1ccc(Cl)nc1 [Compound 558] | 85
